This passage reports IC50 results from US8987273B2, “Substituted imidazo[1,2-B]pyridazines” (Bayer Intellectual Property GmbH, priority 2010, dated 2015).

The test system of assay [1] is phospho-AKT at S473 in KPL4 breast tumour cell line. Description: Cellular p-AKT1/2/3-S473 assay. In kind it is cell-based. The conditions noted are these: KPL4 cells, 2 hours treatment; median; read-out: pAKT-S743 median IC50.
Assay [2] addresses His-tagged human recombinant kinase full-length Akt2 (Homo sapiens (Human), UniProt P31751). Description: Akt2 kinase assay (TR-FRET). In kind it is biochemical. The conditions noted are these: 10 μM ATP; median. An outline of the steps: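 PDK1-activated full-length His-Akt2 (insect-cell expressed, ~0.2 ng/μl final) pre-incubated with compound 15 min, then reacted 60 min at 22 °C with 10 μM ATP and 1 μM biotinylated peptide in Tris pH 7.5/MgCl2/DTT. EDTA stop; phospho-peptide read by HTRF 665/620 ratio, normalised to no-inhibitor and no-enzyme controls.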
For orientation: In TR-FRET formats the signal depends on donor and acceptor labels being close together.

A further assay concerns KPL-4 cells. The assay can be described thus: Tumor cell proliferation assay (CellTiter-Glo). It is filed as cell-based. The conditions noted are these: KPL4; 72 h drug exposure. (In ATP-based viability assays light output follows the ATP content of the culture.)
Assay [3] concerns the target His-tagged human recombinant kinase full-length Akt1 (Homo sapiens (Human), UniProt P31749). Description: Akt1 kinase assay (TR-FRET). The conditions noted are these: 10 μM ATP; median. In kind it is biochemical. An outline of the steps:
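Full-length His-tagged human Akt1 from insect cells, pre-incubated 15 min with compound, then 60 min at 22° C with 10 μM ATP and 1 μM biotinylated peptide in pH 7.5 TRIS buffer. Phosphopeptide detected by HTRF (665/620 nm ratio); data normalised to no-inhibitor and no-enzyme controls.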

Chain of His-tagged human recombinant kinase full-length Akt1 (P31749 whole entry): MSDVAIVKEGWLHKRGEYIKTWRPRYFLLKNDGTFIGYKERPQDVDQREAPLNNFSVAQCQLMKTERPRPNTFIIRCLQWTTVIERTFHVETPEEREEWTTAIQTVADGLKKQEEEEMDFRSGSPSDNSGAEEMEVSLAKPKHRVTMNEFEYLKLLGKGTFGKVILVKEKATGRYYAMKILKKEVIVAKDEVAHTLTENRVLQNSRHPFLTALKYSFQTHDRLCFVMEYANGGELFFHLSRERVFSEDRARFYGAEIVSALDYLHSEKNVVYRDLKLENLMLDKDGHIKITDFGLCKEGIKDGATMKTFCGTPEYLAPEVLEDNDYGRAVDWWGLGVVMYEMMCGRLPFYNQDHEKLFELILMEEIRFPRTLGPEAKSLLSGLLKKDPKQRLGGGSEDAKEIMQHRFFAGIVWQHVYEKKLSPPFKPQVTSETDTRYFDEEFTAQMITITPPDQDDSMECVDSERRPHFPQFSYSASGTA
Chain of His-tagged human recombinant kinase full-length Akt2 (P31751 whole entry): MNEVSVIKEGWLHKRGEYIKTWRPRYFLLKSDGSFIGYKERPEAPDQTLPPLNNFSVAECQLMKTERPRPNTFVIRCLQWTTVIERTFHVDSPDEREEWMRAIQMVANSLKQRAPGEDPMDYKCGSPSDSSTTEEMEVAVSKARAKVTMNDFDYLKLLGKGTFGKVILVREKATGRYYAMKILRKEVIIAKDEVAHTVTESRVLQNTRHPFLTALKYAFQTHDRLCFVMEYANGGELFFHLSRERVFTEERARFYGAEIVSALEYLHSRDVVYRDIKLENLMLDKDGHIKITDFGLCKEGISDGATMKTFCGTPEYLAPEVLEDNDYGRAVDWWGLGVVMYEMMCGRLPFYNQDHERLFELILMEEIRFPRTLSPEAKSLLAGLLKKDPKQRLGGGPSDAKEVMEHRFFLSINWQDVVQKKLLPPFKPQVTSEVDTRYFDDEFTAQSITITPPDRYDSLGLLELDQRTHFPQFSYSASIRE

Turning to `NC1(c2ccc(-c3nn4c(-c5ccc(F)cc5)c(Cl)nc4cc3-c3ccccc3)cc2)CCC1` [Example 7-0, 1-{4-[2-Chloro-3-(4-fluorophenyl)-7-phenyl-imidazo[1,2-b]pyridazin-6-yl]-phenyl}-cyclobutylamine], the IC50 (in general, the concentration at which inhibition is half-maximal) in assay [1] amounted to 0.61 µM; in assay [2], 0.106 µM; in the assay with KPL-4 cells, 3.03 µM; in assay [3] it was 0.099 µM.
In the same order, the values of `NC(=O)/C=C/c1cnc2cc(-c3ccccc3)c(-c3ccc(C4(N)CCC4)cc3)nn12` [Example 8-0, (E)-3-{6-[4-(1-Amino-cyclobutyl)-phenyl]-7-phenyl-imidazo[1,2-b]pyridazin-3-yl}-acrylamide] are 0.05 µM, 0.222 µM, 2.42 µM and 0.038 µM.
In the same order, the values of `C=Cc1cnc2cc(-c3ccccc3)c(-c3ccc(C4(N)CCC4)cc3)nn12` [Example 9-0, 1-[4-(7-Phenyl-3-vinyl-imidazo[1,2-b]pyridazin-6-yl)-phenyl]-cyclobutylamine] are 0.03 µM, 0.326 µM, 1.87 µM and 0.044 µM.
In the same order, the values of `Cc1nc2cc(-c3ccccc3)c(-c3ccc(C4(N)CCC4)cc3)nn2c1/C=C/C(N)=O` [Example 10-0, (E)-3-{6-[4-(1-Amino-cyclobutyl)-phenyl]-2-methyl-7-phenyl-imidazo[1,2-b]pyridazin-3-yl}-acrylamide] are 10 µM, 20 µM, 2.49 µM and 18 µM.
Regarding `COC(=O)/C=C/c1c(C)nc2cc(-c3ccccc3)c(-c3ccc(C4(N)CCC4)cc3)nn12` [Example 11-0, (E)-3-{6-[4-(1-Amino-cyclobutyl)-phenyl]-2-methyl-7-phenyl-imidazo[1,2-b]pyridazin-3-yl}-acrylic acid methyl ester], the concentration for half-maximal inhibition (IC50) was found to be 10 µM in assay [1], 10.1 µM in assay [2], 5.28 µM with KPL-4 cells and 5.97 µM in assay [3].
Consider `C=Cc1c(C)nc2cc(-c3ccccc3)c(-c3ccc(C4(N)CCC4)cc3)nn12` [Example 12-0, 1-[4-(2-Methyl-7-phenyl-3-vinyl-imidazo[1,2-b]pyridazin-6-yl)-phenyl]-cyclobutylamine], for which the IC50 was found to be 10 µM in assay [1], 16.7 µM in assay [2], 3.2 µM in the assay on KPL-4 cells and 8.94 µM in assay [3].
